Test results from US8563729B2, “Thienopyridone derivatives as AMP-activated protein kinase (AMPK) activators” (Merck Patent GmbH, priority 2008, dated 2013).

How the values were obtained:
[1] = target: T1, AMPK protein (recombinant α1β1γ2) (Homo sapiens, UniProt Q13131+Q9Y478); assay: AMPK enzymatic activity (Delfia, AMARA peptide substrate); format: biochemical; details: compound 30 μM vs AMP 30 μM; 125 μM ATP; ratio 90% or higher = direct activator
T1 construct: made in house; host or cells: E. coli
T1 sequence (Q13131 whole entry): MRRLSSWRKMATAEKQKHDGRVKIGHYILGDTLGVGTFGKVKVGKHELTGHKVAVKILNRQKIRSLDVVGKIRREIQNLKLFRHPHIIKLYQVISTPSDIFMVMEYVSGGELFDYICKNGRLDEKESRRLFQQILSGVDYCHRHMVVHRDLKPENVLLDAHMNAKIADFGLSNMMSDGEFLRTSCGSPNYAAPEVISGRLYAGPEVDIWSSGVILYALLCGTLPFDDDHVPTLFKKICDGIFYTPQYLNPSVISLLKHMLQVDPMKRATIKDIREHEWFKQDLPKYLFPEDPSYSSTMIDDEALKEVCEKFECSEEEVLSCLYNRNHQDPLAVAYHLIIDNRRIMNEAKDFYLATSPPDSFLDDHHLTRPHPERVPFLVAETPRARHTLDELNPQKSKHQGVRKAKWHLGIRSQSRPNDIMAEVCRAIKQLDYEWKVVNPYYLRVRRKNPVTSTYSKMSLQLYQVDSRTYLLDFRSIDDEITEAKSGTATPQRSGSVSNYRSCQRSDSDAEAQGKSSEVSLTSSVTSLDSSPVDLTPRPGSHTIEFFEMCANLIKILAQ
T1 sequence (Q9Y478 whole entry): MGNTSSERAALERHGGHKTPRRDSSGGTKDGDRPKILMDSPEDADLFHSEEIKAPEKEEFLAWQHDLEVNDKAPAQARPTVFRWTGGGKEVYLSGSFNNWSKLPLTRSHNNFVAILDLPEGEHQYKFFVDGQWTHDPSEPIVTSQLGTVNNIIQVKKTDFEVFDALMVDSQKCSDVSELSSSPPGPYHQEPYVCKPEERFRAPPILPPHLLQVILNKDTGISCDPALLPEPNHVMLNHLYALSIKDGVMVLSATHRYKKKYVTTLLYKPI
T1 sequence (Q9UGJ0 whole entry partner): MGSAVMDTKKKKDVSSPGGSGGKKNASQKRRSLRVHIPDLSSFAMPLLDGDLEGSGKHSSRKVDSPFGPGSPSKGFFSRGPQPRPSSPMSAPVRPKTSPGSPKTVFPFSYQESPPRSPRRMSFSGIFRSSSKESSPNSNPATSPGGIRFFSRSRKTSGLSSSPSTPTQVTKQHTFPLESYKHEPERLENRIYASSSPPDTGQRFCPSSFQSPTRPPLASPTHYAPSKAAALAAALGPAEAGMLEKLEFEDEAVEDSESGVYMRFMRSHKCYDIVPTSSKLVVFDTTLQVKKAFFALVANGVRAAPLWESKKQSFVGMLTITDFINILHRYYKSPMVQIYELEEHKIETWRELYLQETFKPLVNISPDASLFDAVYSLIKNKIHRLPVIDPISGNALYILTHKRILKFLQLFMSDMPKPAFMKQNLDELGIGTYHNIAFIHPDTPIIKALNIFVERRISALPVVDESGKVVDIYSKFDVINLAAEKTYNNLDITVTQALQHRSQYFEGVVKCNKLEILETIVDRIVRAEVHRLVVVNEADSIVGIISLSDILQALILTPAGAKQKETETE
Description: The following biological test allows the determination of the efficacy of such compounds of formula (I) onto AMPK protein (recombinant α1β1γ2).
Human recombinant AMPK enzyme was expressed in E. Coli and was reactivated in vitro by LKB1 prior to enzyme activity determination.
AMPK enzyme activities were assayed by using A Delfia technology. AMPK enzyme activities were carried out in microtiter plates (50 mM Hepes buffer, pH 7.4 with 125 μM ATP respectively) in the presence of a synthetic peptide substrate (AMARAASAAALARRR, the “AMARA” peptide) and activators in serial dilutions. Reactions were initiated by the addition of AMPK (50-100 ng). Following mixing, the plates were incubated for 30 min at room temperature. Enzyme activity was assayed by using an anti-phosphoserine antibody to measure the quantity of phosphate incorporated into the AMARAA.
(§1) N°: Number of the molecule
Activity: Ratio between the % of control (basal activity) of compound of formula (I) at 30 μM and the % of control (basal activity) of AMP (natural substrate) at 30 μM.
Compounds of formula (I) in the table II are considered as direct activator of AMPK if the ratio is 90% or higher.

H-2 Kb cells = assay: Glucose uptake in H-2 Kb cells (in vitro cellular test); format: cell-based, mouse; details: H-2 Kb cells differentiated in muscle, 4 hours incubation, 2-deoxy-D-[1,2 3H] glucose uptake 10 min
Description: Glucose Uptake in H-2 Kb Cells (In Vitro Cellular Test)
The following cellular test allows the determination of the effect of AMPK activators such as compounds of formula (I) onto glucose uptake in a muscle cellular model.
H-1-2 Kb cells derived from heterozygous H-2 Kb tsA58 transgenic mouse were grown in 24-well in plates coated with matrigel and were cultured at 33° C. for 4 days under permissive conditions, as described previously by Fryer et al. (Diabetes 49 (12): 1978, 2000).
For differentiation in muscle, cells were switched to non-permissive culture conditions (37° C. in the absence of interferon-γ). After 3 days, cells were incubated for 4 hours in DMEM 1 g/l glucose culture medium containing different concentrations of the tested molecules. Then glucose uptake was measured by incubating the cells for 10 min with radiolabelled 2-deoxy-D-[1,2 ^3H] glucose. Glucose uptake was terminated by rapidly washing the plates 2 times with ice-cold NaCl 0.9%. The cells were then solubilized in 0.1N NaOH for 30 min. Radioactivity was determined by liquid scintillation counting.
as §1
Activity (table III): Concentration of compound (I) for a glucose uptake equal or higher to glucose uptake induced by insulin (170 nM)
^++ or **concentration of compound (I) ≦10 micro Molar
^+ or *concentration of compound (I) >10 micro Molar

Row | Structure (SMILES) | activity: Ratio between the % of control (basal activity) of compound of formula (I) at 30 μM and the % of control (basal activity) of AMP at 30 μM [1] [%] | Activity (table III): Concentration of compound (I) for a glucose uptake equal or higher to glucose uptake induced by insulin (170 nM) (H-2 Kb cells)
1 | COc1cccc(-c2csc3[nH]c(=O)c(-c4ccccc4)c(O)c23)c1 [Compound 47] | 117 | * (^+ or *concentration of compound (I) >10 micro Molar)
2 | COc1ccc(-c2csc3[nH]c(=O)c(-c4ccccc4)c(O)c23)c(F)c1 [Compound 63] | 115 | * (^+ or *concentration of compound (I) >10 micro Molar)
3 | Cc1ccc(-c2csc3[nH]c(=O)c(-c4ccccc4)c(O)c23)c(O)c1 [Compound 83, 4-hydroxy-3-(2-hydroxy-4-methylphenyl)-5-phenyl-6,7-dihydro-thieno[2,3-b]pyridin-6-one] | 403 | * (^+ or *concentration of compound (I) >10 micro Molar)
4 | Cc1ccc(-c2c(Cl)sc3[nH]c(=O)c(-c4cccc(C#N)c4)c(O)c23)c(O)c1 [Compound 101] | – | * (^+ or *concentration of compound (I) >10 micro Molar)
5 | Cc1ccc(-c2c(Cl)sc3[nH]c(=O)c(-c4ccccc4)c(O)c23)cc1O [Compound 102] | – | ** (^++ or **concentration of compound (I) ≦10 micro Molar)
6 | COc1cc(-c2c(Cl)sc3[nH]c(=O)c(-c4ccccc4)c(O)c23)ccc1C [Compound 103] | – | * (^+ or *concentration of compound (I) >10 micro Molar)
7 | NC(=NO)c1cccc(-c2c(O)c3c(-c4ccccc4)c(Cl)sc3[nH]c2=O)c1 [Compound 146] | 103 | –
8 | CNC(=O)c1ccc(-c2c(O)c3c(-c4ccccc4)c(Cl)sc3[nH]c2=O)cc1 [Compound 150] | 130 | –
9 | NC(=O)c1ccc(-c2c(O)c3c(-c4ccccc4)c(Cl)sc3[nH]c2=O)cc1 [Compound 151] | 134 | –
10 | O=C(O)c1ccc(-c2c(O)c3c(-c4ccccc4)c(Cl)sc3[nH]c2=O)cc1 [Compound 153] | 111 | –
11 | CS(=O)(=O)c1ccc(-c2c(O)c3c(-c4ccccc4)c(Cl)sc3[nH]c2=O)cc1 [Compound 154] | 131 | –
12 | NC(=NO)c1ccc(-c2c(O)c3c(-c4ccccc4)c(Cl)sc3[nH]c2=O)cc1 [Compound 155] | 95 | –
13 | O=c1[nH]c2sc(Cl)c(-c3ccccc3)c2c(O)c1-c1ccccc1OCc1ccccc1 [Compound 158] | 110 | –
14 | O=c1[nH]c2sc(Cl)c(-c3ccccc3)c2c(O)c1-c1ccccc1O [Compound 159] | 164 | –
15 | O=c1[nH]c2sc(Cl)c(-c3ccc(F)cc3)c2c(O)c1-c1ccc(F)cc1 [Compound 203] | 251 | –
16 | Cc1ccc(-c2c(O)c3c(-c4ccc(F)cc4O)c(Cl)sc3[nH]c2=O)cc1 [Compound 214] | 207 | –
